# Test results reported in ChEMBL document CHEMBL3885861, “Open TG-GATES”.
# Organism: Rattus norvegicus
# Experiment: Open TG-GATES - Regimen: Daily Repeat
# Assay type: toxicity, organism-based, Sprague-Dawley
# Parameters: regimen Daily Repeat, gender Male, age 6 weeks
# Conditions: in vivo, po, 0 mg/kg, route gavage, dose level Control; for APTT / Bas / Eos / Fbg / Hb / Ht / Lym / MCH / MCHC / MCV / Mono / Neu / PT / Plat / RBC / Ret / WBC: tissue Blood; for ALP / ALT / AST / BUN / CRE / DBIL / GLC / IP / K / Na / PL / RALB / TBIL / TC / TG / TP / gamma-GTP: tissue Plasma
smiles,measurement,setting,value
NS(=O)(=O)c1cc(C(=O)O)c(NCc2ccco2)cc1Cl [FUROSEMIDE],TERMINAL_BW,"72 h, time 3 day",240.2 g
same,APTT,"72 h, time 3 day",15.8 s
same,Bas,"72 h, time 3 day",0.2%
same,Eos,"72 h, time 3 day",1%
same,Fbg,"72 h, time 3 day",306 mg/dL
same,Hb,"72 h, time 3 day",13.5 g/dL
same,Ht,"72 h, time 3 day",40.3%
same,Lym,"72 h, time 3 day",73.8%
same,MCH,"72 h, time 3 day",21.5 pg
same,MCHC,"72 h, time 3 day",33.6%
same,MCV,"72 h, time 3 day",64.1 fL
same,Mono,"72 h, time 3 day",3.2%
same,Neu,"72 h, time 3 day",21.2%
same,PT,"72 h, time 3 day",14.8 s
same,Plat,"72 h, time 3 day",114.8 x10_4/uL
same,RBC,"72 h, time 3 day",629.2 x10_4/ul
same,Ret,"72 h, time 3 day",6.5%
same,WBC,"72 h, time 3 day",92.7 x10_2/uL
same,ALP,"72 h, time 3 day",1396.2 IU/L
same,ALT,"72 h, time 3 day",42 IU/L
same,AST,"72 h, time 3 day",66.2 IU/L
same,BUN,"72 h, time 3 day",14.4 mg/dL
same,CRE,"72 h, time 3 day",0.2 mg/dL
same,DBIL,"72 h, time 3 day",0.016 mg/dL
same,GLC,"72 h, time 3 day",180.2 mg/dL
same,IP,"72 h, time 3 day",7.7 mg/dL
same,K,"72 h, time 3 day",3.8 meq/L
same,Na,"72 h, time 3 day",142.6 meq/L
same,PL,"72 h, time 3 day",182 mg/dL
same,RALB,"72 h, time 3 day",2.7 g/dL
same,TBIL,"72 h, time 3 day",0.056 mg/dL
same,TC,"72 h, time 3 day",91 mg/dL
same,TG,"72 h, time 3 day",130 mg/dL
same,TP,"72 h, time 3 day",5.8 g/dL
same,gamma-GTP,"72 h, time 3 day",0.4 IU/L
same,TERMINAL_BW,"[…], time 7 day",280.2 g
same,TERMINAL_BW,"[…], time 14 day",327.8 g
same,TERMINAL_BW,"[…], time 28 day",406.3 g
same,APTT,"[…], time 7 day",17.8 s
same,Bas,"[…], time 7 day",0.6%
same,Eos,"[…], time 7 day",1%
same,Fbg,"[…], time 7 day",294.2 mg/dL
same,Hb,"[…], time 7 day",13.7 g/dL
same,Ht,"[…], time 7 day",39.9%
same,Lym,"[…], time 7 day",80.2%
same,MCH,"[…], time 7 day",21.2 pg
same,MCHC,"[…], time 7 day",34.5%
same,MCV,"[…], time 7 day",61.5 fL
same,Mono,"[…], time 7 day",2.6%
same,Neu,"[…], time 7 day",14.8%
same,PT,"[…], time 7 day",15.5 s
same,Plat,"[…], time 7 day",125.8 x10_4/uL
same,RBC,"[…], time 7 day",648.6 x10_4/ul
same,Ret,"[…], time 7 day",5.2%
same,WBC,"[…], time 7 day",100.8 x10_2/uL
same,APTT,"[…], time 14 day",19.3 s
same,Bas,"[…], time 14 day",0.4%
same,Eos,"[…], time 14 day",1%
same,Fbg,"[…], time 14 day",289.4 mg/dL
same,Hb,"[…], time 14 day",15 g/dL
same,Ht,"[…], time 14 day",43.1%
same,Lym,"[…], time 14 day",81%
same,MCH,"[…], time 14 day",21 pg
same,MCHC,"[…], time 14 day",34.7%
same,MCV,"[…], time 14 day",60.4 fL
same,Mono,"[…], time 14 day",2.8%
same,Neu,"[…], time 14 day",14.2%
same,PT,"[…], time 14 day",15.3 s
same,Plat,"[…], time 14 day",117.3 x10_4/uL
same,RBC,"[…], time 14 day",713.8 x10_4/ul
same,Ret,"[…], time 14 day",4.2%
same,WBC,"[…], time 14 day",117.4 x10_2/uL
same,APTT,"[…], time 28 day",17.8 s
same,Bas,"[…], time 28 day",0.6%
same,Eos,"[…], time 28 day",1.2%
same,Fbg,"[…], time 28 day",266.6 mg/dL
same,Hb,"[…], time 28 day",15.1 g/dL
same,Ht,"[…], time 28 day",44.6%
same,Lym,"[…], time 28 day",82.2%
same,MCH,"[…], time 28 day",19.1 pg
same,MCHC,"[…], time 28 day",33.7%
same,MCV,"[…], time 28 day",56.7 fL
same,Mono,"[…], time 28 day",2.2%
same,Neu,"[…], time 28 day",13.4%
same,PT,"[…], time 28 day",16.4 s
same,Plat,"[…], time 28 day",100.7 x10_4/uL
same,RBC,"[…], time 28 day",787.6 x10_4/ul
same,Ret,"[…], time 28 day",1.8%
same,WBC,"[…], time 28 day",98.8 x10_2/uL
same,ALP,"[…], time 7 day",1277.2 IU/L
same,ALT,"[…], time 7 day",38.2 IU/L
same,AST,"[…], time 7 day",61.4 IU/L
same,BUN,"[…], time 7 day",15.6 mg/dL
same,CRE,"[…], time 7 day",0.2 mg/dL
same,DBIL,"[…], time 7 day",0.018 mg/dL
same,GLC,"[…], time 7 day",179.4 mg/dL
same,IP,"[…], time 7 day",7.8 mg/dL
same,K,"[…], time 7 day",4 meq/L
same,Na,"[…], time 7 day",142.6 meq/L
same,PL,"[…], time 7 day",168 mg/dL
same,RALB,"[…], time 7 day",2.7 g/dL
same,TBIL,"[…], time 7 day",0.05 mg/dL
same,TC,"[…], time 7 day",85.6 mg/dL
same,TG,"[…], time 7 day",119.8 mg/dL
same,TP,"[…], time 7 day",5.9 g/dL
same,gamma-GTP,"[…], time 7 day",0.8 IU/L
same,ALP,"[…], time 14 day",1456.8 IU/L
same,ALT,"[…], time 14 day",43.4 IU/L
same,AST,"[…], time 14 day",64.6 IU/L
same,BUN,"[…], time 14 day",15.2 mg/dL
same,CRE,"[…], time 14 day",0.2 mg/dL
same,DBIL,"[…], time 14 day",0.014 mg/dL
same,GLC,"[…], time 14 day",177.8 mg/dL
same,IP,"[…], time 14 day",7.4 mg/dL
same,K,"[…], time 14 day",4.1 meq/L
same,Na,"[…], time 14 day",143.6 meq/L
same,PL,"[…], time 14 day",160.6 mg/dL
same,RALB,"[…], time 14 day",2.8 g/dL
same,TBIL,"[…], time 14 day",0.046 mg/dL
same,TC,"[…], time 14 day",69.8 mg/dL
same,TG,"[…], time 14 day",157.2 mg/dL
same,TP,"[…], time 14 day",6.1 g/dL
same,gamma-GTP,"[…], time 14 day",0.6 IU/L
same,ALP,"[…], time 28 day",1033.8 IU/L
same,ALT,"[…], time 28 day",36.4 IU/L
same,AST,"[…], time 28 day",64.6 IU/L
same,BUN,"[…], time 28 day",14.4 mg/dL
same,CRE,"[…], time 28 day",0.2 mg/dL
same,DBIL,"[…], time 28 day",0.016 mg/dL
same,GLC,"[…], time 28 day",183.4 mg/dL
same,IP,"[…], time 28 day",6.3 mg/dL
same,K,"[…], time 28 day",3.9 meq/L
same,Na,"[…], time 28 day",143.8 meq/L
same,PL,"[…], time 28 day",137.2 mg/dL
same,RALB,"[…], time 28 day",2.8 g/dL
same,TBIL,"[…], time 28 day",0.048 mg/dL
same,TC,"[…], time 28 day",64.8 mg/dL
same,TG,"[…], time 28 day",116.6 mg/dL
same,TP,"[…], time 28 day",6.2 g/dL
same,gamma-GTP,"[…], time 28 day",0.4 IU/L
